# Measurements taken from paper PMC4061319 (Biotechnology for Biofuels, 2014).
# How the values were obtained:
# [1] = target: T1, SdCBP (cellobiose phosphorylase from Saccharophagus degradans) (Saccharophagus degradans, UniProt Q21L49); assay: initial rates of phosphorolysis from continuous G1P colorimetric assay, non-linear regression; assay type: biochemical; conditions: no xylose; 5 mM inorganic phosphate, 20 mM MES pH 6.0, 30°C, 10 nM enzyme
# T1 construct: gene cep94A; CBP is a homodimer
# [2] = target: T1, SdCBP (cellobiose phosphorylase from Saccharophagus degradans); assay: competition assay of cellobiose phosphorolysis at […] xylose; assay type: biochemical; conditions: mixed inhibitor versus cellobiose; 5 mM inorganic phosphate, 20 mM MES pH 6.0, 30°C
# T1 sequence (Q21L49 entry or part of it): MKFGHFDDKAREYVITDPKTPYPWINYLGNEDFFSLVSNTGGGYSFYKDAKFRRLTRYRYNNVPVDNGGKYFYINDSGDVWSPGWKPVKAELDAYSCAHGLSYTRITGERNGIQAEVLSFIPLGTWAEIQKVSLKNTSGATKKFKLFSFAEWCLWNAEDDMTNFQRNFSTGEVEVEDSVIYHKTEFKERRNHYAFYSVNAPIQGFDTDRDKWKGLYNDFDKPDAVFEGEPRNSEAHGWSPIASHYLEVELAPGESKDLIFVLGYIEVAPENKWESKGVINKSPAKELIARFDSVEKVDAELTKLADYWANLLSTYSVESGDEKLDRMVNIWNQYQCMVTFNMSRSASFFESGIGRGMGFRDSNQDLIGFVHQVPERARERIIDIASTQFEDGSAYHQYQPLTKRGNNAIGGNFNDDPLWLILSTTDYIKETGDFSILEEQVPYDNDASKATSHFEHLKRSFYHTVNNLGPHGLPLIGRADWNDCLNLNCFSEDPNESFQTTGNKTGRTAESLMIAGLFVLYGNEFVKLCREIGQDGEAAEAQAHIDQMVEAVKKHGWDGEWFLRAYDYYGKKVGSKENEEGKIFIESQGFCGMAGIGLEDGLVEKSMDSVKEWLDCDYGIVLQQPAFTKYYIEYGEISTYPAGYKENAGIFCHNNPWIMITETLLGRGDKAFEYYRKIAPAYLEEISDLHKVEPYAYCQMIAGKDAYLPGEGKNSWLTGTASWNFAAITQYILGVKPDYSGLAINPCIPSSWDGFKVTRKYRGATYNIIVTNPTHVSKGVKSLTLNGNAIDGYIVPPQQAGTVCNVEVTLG
Compound,"KM,app [1]","competition assay of cellobiose phosphorolysis at 0, 2.5 and 5 mM xylose [2]"
OC[C@H]1O[C@@H](O[C@H]2[C@H](O)[C@@H](O)C(O)O[C@@H]2CO)[C@H](O)[C@@H](O)[C@@H]1O (some centres unmarked) [cellobiose],Initial rates of cellobiose phosphorolysis were calculated from the amount of G1P produced,–
OC1OC[C@@H](O)[C@H](O)[C@H]1O (some centres unmarked) [xylose],–,identifying xylose as a mixed-inhibitor for the cellobiose phosphorolysis reaction
